Assay [1] relates to Candida albicans. Put plainly: Antifungal disc diffusion, C. albicans. Type of assay: cell-based. Particulars: Nil = zero inhibition. How it is done: (§1) The ligand and its metal(II) complexes were evaluated for antimicrobial activity against two strains, gram-positive bacteria (Staphylococcus aureus and Staphylococcus faecalis), gram-negative bacteria (Escherichia coli and Pseudomonas aeruginosa) and pathogenic fungi (Candida albicans), using DMSO as a negative control. […] The antimicrobial activity of the tested samples was determined using a modified Kirby-Bauer disc diffusion method. All the synthesized compounds were dissolved to prepare a stock solution of 1 mg/mL using DMSO. Stock solution was aseptically transferred, and two-fold diluted to have solutions of different concentrations. The antibacterial and antifungal activities of test compounds were done by filter paper disc method[21] and the activities were determined by measuring the diameters of the inhibition zone (mm). Media with DMF was set up as a control. All cultures were routinely maintained on NA (nutrient agar) and incubated at 37 °C. The inoculums of bacteria were performed by growing the culture in NA broth at 37 °C for overnight. Approximately, 0.1 mL of diluted bacterial or fungal culture suspension was spread with the help of spreader on NA plates uniformly. Solutions of the tested compounds and reference drugs were prepared by dissolving 10 mg of the compound in 10 mL DMF. […]
For orientation: In agar diffusion tests the substance spreads into inoculated agar from a disc or well.

In assay [2] the test system is red blood cell (RBC) membrane. Put plainly: Membrane stabilization (antihemolytic) activity, hypotonic solution-induced RBC lysis. The assay is classed as cell-based, human. How it is done: Anti-inflammatory activities were evaluated through the antihemolytic membrane stabilization effect of the ligand and its metal complexes using a red blood cell (RBC) membrane stabilization method. Fresh whole blood samples were collected in anticoagulant tubes from a healthy volunteer who was not treated with any nonsteroidal anti-inflammatory drugs (NSAIDs) for 2 weeks before the experiment. Erythrocytes were extracted by centrifugation at 3000 rpm for 5 min. The anticoagulated cells were washed 3 times with 0.9% saline and centrifuged at 3000 rpm for 10 min. An RBC suspension (40% v/v) was prepared using isotonic saline phosphate buffer (0.15 M NaCl and 10 mM sodium phosphate buffer, pH 7.4). One milliliter of phosphate buffer (0.15 M, pH 7.4) was added to one mL of various concentrations of the tested compounds (0.05, 0.1, 0.2, 0.3, 0.4 and 0.5 mg/mL DMSO) and 2 mL sodium chloride solution (0.25%). In the control tube, one distilled water was used instead of the tested compounds. Different concentrations of nonsteroidal anti-inflammatory drug (diclofenac potassium) were used as standards. Then, 100 µL of RBC suspension was added to each tube and incubated at room temperature for 60 min. After incubation, the samples were centrifuged for 10 min at 3000 rpm. The absorbance of the supernatant was detected at 540 nm using an ELISA reader. The inhibition of hemolysis in the samples was evaluated according to the equation: %Inhibition \, of \, hemolysis=A \, control-A \, sample/A \, control×100.

The nature of assay [3]: DPPH radical scavenging assay. The assay is classed as biochemical. Particulars: for DPPH radical scavenging activity (% inhibition): Standard = ascorbic acid (vitamin C). As to the method:
The oxidative scavenging activity of the ligand and its complexes was evaluated by DPPH (4 mg/100 ml methanol) Zengin, et al.[16]. Briefly, equal volumes of different concentrations ([…], 0.1, 0.2, 0.3, 0.4 and 0.5 mg/mL DMSO) of the tested components were added to DPPH reagent using ascorbic acid as a reference. All the investigated tests were shaken and incubated at room temperature in the dark for 30 min. The decrease in DPPH radicals was evaluated at 490 nm using an ELISA reader. Each test was performed in triplicate. The radical scavenging power was estimated as a percentage of DPPH inhibition using the equation: %inhibition=[(A \, control-A \, sample)/A \, control]×100.
(Loss of DPPH colour is used to gauge radical scavenging.)

The test system of assay [4] is Escherichia coli. Put plainly: Antimicrobial disc diffusion, E. coli. The assay is classed as cell-based. The following applies: Nil = zero inhibition. How it is done:
as §1

For assay [5], the system named is Staphylococcus aureus. Put plainly: Antimicrobial disc diffusion, S. aureus. Type of assay: cell-based. The following applies: Nil = zero inhibition. How it is done:
as §1

Assay [6] relates to Pseudomonas aeruginosa. Briefly: Antimicrobial disc diffusion, P. aeruginosa. The assay is classed as cell-based. The following applies: Nil = zero inhibition. How it is done: as §1
Assay [7] has as its system Staphylococcus faecalis. Briefly: Antimicrobial disc diffusion, S. faecalis. Type of assay: cell-based. Particulars: Nil = zero inhibition. How it is done: as §1
Assay [8] can be described thus: Reducing power assay (ferricyanide, absorbance at 700 nm). The assay is classed as biochemical. Particulars: Standard = ascorbic acid. How it is done: The reducing power capacity of the investigated compounds was evaluated by the method of Oyaizu[18]. Then, 0.5 mL of different concentrations ([…], 0.1, 0.2, 0.3, 0.4 and 0.5 mg/mL in DMSO) was added to 0.5 mL of sodium phosphate buffer (0.2 M, pH 6.6) and 0.5 mL of 1% potassium ferricyanide. The samples were incubated at 50 °C for 20 min. Then, 0.5 mL trichloroacetic acid (10%) was added and centrifuged at 3000 rpm for 15 min. The supernatant (1.0 mL) was incubated with 1.0 mL H2O2 and 0.2 mL of 1% ferric chloride for 30 min. The absorbance of the samples was measured at 700 nm. Ascorbic acid was used as a standard. An increase in the absorbance value indicates a higher reducing power.

For assay [9], the system named is Acetylcholinesterase (AChE). Put plainly: AChE inhibition (Ellman method, brain homogenate). Type of assay: biochemical. The following applies: Standard = donepezil. How it is done: Acetylcholinesterase (AChE) activity was evaluated according to a previously reported method. Briefly, 10 μL of different concentrations of the tested compounds (test) or organic solvent (control) was added to 130 μL of phosphate buffer (pH 7.4, 0.1 M) and 20 μL of brain homogenate and then incubated at 37 °C for 45 min. Then, 5 μL of […] (75 mM) was added and incubated for 15 min at 37 °C. After incubation, […] of 0.32 mM DTNB was added. […] The percent inhibition of AChE was calculated as follows: %inhibition \, of \, […]=[A \, control--A \, sample/A \, control]×100.
A general note: DTNB colorimetry detects thiols as they appear.

Assay [10] in a line: Nitric oxide scavenging assay (sodium nitroprusside / Griess reagent). Type of assay: biochemical. Particulars: Standard = ascorbic acid. How it is done: The nitric oxide scavenging activity of the ligand and its complexes was evaluated following a reported procedure Padmaja, et al.[17]. […] The samples were added to 150 µL Griess reagent (1% sulfanilamide and 0.1% naphthyl ethylenediamine hydrochloride in 2.5% orthophosphoric acid) and incubated at 25 °C for 30 min. The absorbance (A) was read at 540 nm using an ELISA reader. The experiment was repeated in triplicate, and ascorbic acid was used as a standard. The scavenged activity of NO was calculated using the equation %inhibition=[(A \, control-A \, sample)/A \, control]×100.

[11] abbreviates: Homo sapiens, Erythrocyte, read-out: Inhibition of RBC hemolysis (membrane stabilization).

With `C[C@@H]1[C@H](O)[C@@H](C)/C=C/C=C/C=C/C=C/C=C/C=C/C=C/[C@H](O[C@@H]2O[C@H](C)[C@@H](O)[C@H](N)[C@@H]2O)C[C@@H]2O[C@](O)(C[C@@H](O)C[C@@H](O)[C@H](O)CC[C@@H](O)C[C@@H](O)CC(=O)O[C@H]1C)C[C@H](O)[C@H]2C(=O)O` [Amphotericin B, reference compound], the Inhibition zone diameter in [1] is 20 mm/mg sample.
With `O=C([O-])Cc1ccccc1Nc1c(Cl)cccc1Cl.[K+]` [diclofenac potassium, reference compound], in assay [2] (hypotonic solution-induced lysis), the “Antihemolytic activity toward RBCs IC50” value came out at 0.12 mg/mL.
For `O=C1O[C@H]([C@@H](O)CO)C(O)=C1O` [ascorbic acid, reference compound], the “DPPH IC50” value in assay [3] worked out at 0.145 mg/mL.
Turning to `CN(C)[C@@H]1C(O)=C(C(N)=O)C(=O)[C@@]2(O)C(O)=C3C(=O)c4c(O)cccc4[C@@](C)(O)[C@H]3C[C@@H]12` [Tetracycline, reference compound], the Inhibition zone diameter in assay [4] is recorded as 32 mm/mg sample; in assay [5], 32 mm/mg sample; in assay [6] it was 33 mm/mg sample; in assay [7], 33 mm/mg sample.
A word on the inhibition: it is the share of the control response that was lost under treatment. With `Oc1ccc2ccccc2c1/C=N/c1ccc(Cc2ccc(/N=C/c3c(O)ccc4ccccc34)cc2)cc1` [Ligand], the “Reducing power (absorbance at 700 nm)” value is reported as 0.10 ± 0.01 in [8] (0.05 mg/mL); 0.13 ± 0.001 in assay [8] (0.1 mg/mL); 0.17 ± 0.01 in assay [8] (0.2 mg/mL); 0.20 ± 0.01 in assay [8] (0.3 mg/mL); 0.23 ± 0.001 in assay [8] (0.4 mg/mL); 0.29 ± 0.01 in [8] (0.5 mg/mL). Further, the Inhibition zone diameter result in assay [4], in [5], in [6], in assay [1] and in assay [7] was “Nil” throughout. Further, the inhibition at 50 µg/mL in assay [2] (setting [11]) was 11.8 ± 1.01%. The inhibition at 100 µg/mL in assay [2] (setting [11]) turned out to be 19.8 ± 0.75%. Besides, the inhibition at 200 µg/mL in assay [2] (setting [11]) turned out to be 26.9 ± 0.44%. For the same compound, the inhibition at 300 µg/mL in assay [2] (setting [11]) was 32.7 ± 0.8%. The inhibition at 400 µg/mL in [2] (setting [11]) came out at 38.5 ± 1.16%. In [2] (setting [11]), the inhibition at 500 µg/mL stood at 43.4 ± 0.68%. Also, the “DPPH radical scavenging activity (% inhibition)” value stood at 11.5 ± 0.95% in assay [3] (0.05 mg/mL); 17.53 ± 0.85% in assay [3] (0.1 mg/mL); 25.33 ± 0.81% in assay [3] (0.2 mg/mL); 31.13 ± 0.65% in assay [3] (0.3 mg/mL); 38.83 ± 0.81% in assay [3] (0.4 mg/mL); 44.43 ± 0.70% in assay [3] (0.5 mg/mL). The AChE percent inhibition in assay [9] (0.05 mg/mL) was found to be 17.70 ± 1.04%; in [9] (0.1 mg/mL), 21.83 ± 1.5%; in assay [9] (0.2 mg/mL) it was 27.27 ± 1.16%; in assay [9] (0.3 mg/mL), 32.90 ± 1.61%; in [9] (0.4 mg/mL) it was 38.57 ± 1.0%; in assay [9] (0.5 mg/mL) it was 41.97 ± 1.08%. Besides, the “NO scavenging (% inhibition)” value in [10] (0.05 mg/mL) was determined as 15.8 ± 0.78%; in assay [10] (0.1 mg/mL) it was 21.37 ± 1.38%; in assay [10] (0.2 mg/mL), 27.13 ± 1.58%; in assay [10] (0.3 mg/mL), 37.27 ± 0.97%; in assay [10] (0.4 mg/mL), 42.7 ± 1.78%; in assay [10] (0.5 mg/mL), 47.65 ± 1.49%.
